Measured values taken from US20240116985A1, “STAPLED PEPTIDES AND METHODS THEREOF” (priority 2020, published 2024).
≈ marks a conversion by molar mass, not a printed value. Like-named read-outs stand apart in the source and are kept apart here.

Tests used:
Solubility in PBS = assay type: physicochemical
Procedure, shortened: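 Steps: ultracentrifuge the peptide PBS solution, inject the supernatant on HPLC, inject a 50 μM peptide DMSO solution as reference, then calculate solubility as area ratio (PBS/DMSO) × 50 uM.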

CHI Log D procedure = assay type: physicochemical; conditions: for CHI Log D: pH 7.4; for chromatographic logD: pH 7.4, CHI Log D
[1] = molecular target: T1, full-length beta-Catenin (Uniprot ID P35222) (Homo sapiens, UniProt P35222); experiment: Fluorescence polarization IC50 (beta-catenin / 5FAM-TCF4 10-53 competition); assay type: binding
T1 construct: 10 nM full-length beta-Catenin (Uniprot ID P35222)
T1 sequence (P35222 1-781): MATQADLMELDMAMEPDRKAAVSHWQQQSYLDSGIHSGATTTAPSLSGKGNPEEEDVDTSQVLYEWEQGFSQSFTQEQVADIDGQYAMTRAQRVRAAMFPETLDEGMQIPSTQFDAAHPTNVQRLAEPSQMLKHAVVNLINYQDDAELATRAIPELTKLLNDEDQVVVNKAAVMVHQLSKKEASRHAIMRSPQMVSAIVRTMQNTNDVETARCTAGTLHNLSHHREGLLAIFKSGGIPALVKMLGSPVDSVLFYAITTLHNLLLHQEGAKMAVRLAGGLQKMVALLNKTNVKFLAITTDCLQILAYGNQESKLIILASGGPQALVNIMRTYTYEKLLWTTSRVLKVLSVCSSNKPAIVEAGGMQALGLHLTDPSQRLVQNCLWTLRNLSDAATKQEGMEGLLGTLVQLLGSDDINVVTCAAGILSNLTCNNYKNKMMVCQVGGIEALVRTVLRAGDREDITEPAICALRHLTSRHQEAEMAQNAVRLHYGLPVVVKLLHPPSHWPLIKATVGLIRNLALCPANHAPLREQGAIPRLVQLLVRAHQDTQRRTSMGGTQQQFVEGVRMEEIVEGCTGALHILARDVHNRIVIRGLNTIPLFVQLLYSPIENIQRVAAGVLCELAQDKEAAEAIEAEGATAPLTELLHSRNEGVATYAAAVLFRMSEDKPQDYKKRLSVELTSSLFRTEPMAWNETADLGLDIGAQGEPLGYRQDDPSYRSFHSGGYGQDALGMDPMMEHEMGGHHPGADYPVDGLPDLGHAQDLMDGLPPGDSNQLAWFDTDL

[2] = fluorescence polarization, read-out: beta-Catenin FP IC50
[3] = Table E2-1, read-out: beta-Catenin FP IC50
[4] = fluorescence polarization, beta-catenin, read-out: FP EC50

| SMILES | Solubility (Solubility in PBS) [µM] | CHI Log D (CHI Log D procedure) | IC50 [1, 2] [nM] | IC50 ([1]; read-out: FP EC50) [nM] | Solubility (Solubility in PBS; Solubility (uM)) [µM] | chromatographic logD (CHI Log D procedure) | IC50 [1, 3] [nM] | IC50 [1, 4] [nM] | IC50 ([1]; read-out: beta-Catenin FP IC50) [nM] | Solubility (Solubility in PBS; 15 min) [µM] |
| --- | --- | --- | --- | --- | --- | --- | --- | --- | --- | --- |
| CC[C@H](C)[C@@H]1NC(=O)[C@H](CC(=O)O)NC(=O)[C@]2(CC=CCCCC3(CCCC=CCCCCCC[C@@](C)(C(=O)N[C@@H](Cc4ccccc4)C(=O)N[C@@H](Cc4csc5ccccc45)C(=O)N[C@@H](CCC(N)=O)C(N)=O)NC(=O)[C@H](CCC(N)=O)NC(=O)[C@H](Cc4ccccc4)NC(=O)[C@H](C)NC(=O)[C@H](C)NC(=O)[C@H](Cc4ccc(C(=O)O)cc4)NC(=O)[C@H](CC(=O)O)NC3=O)NC1=O)CCCN2C(C)=O (stereo partly drawn) [I-606, Ac-PL3-Asp-Ile-B5-Asp-4COOHF-Ala-Ala-Phe-Gln-S8-Phe-BztA-Gln-NH2] | 49 (≈ 95.3 µg/mL) | 2.412 | 289 | 289 |  |  |  |  |  |  |
| CC(=O)N1CCC[C@]12CC=CCCCC1(CCCC=CCCCCCC[C@@](C)(C(=O)N[C@@H](Cc3ccccc3)C(=O)N[C@@H](Cc3csc4ccccc34)C(=O)N[C@@H](CCC(N)=O)C(N)=O)NC(=O)[C@H](CC(N)=O)NC(=O)[C@H](Cc3ccccc3)NC(=O)[C@H](C)NC(=O)[C@H](C)NC(=O)[C@H](CN(CC(=O)O)CC(F)(F)F)NC(=O)[C@H](CC(=O)O)NC1=O)NC(=O)[C@H](CC1CCCCC1)NC(=O)[C@H](CC(=O)O)NC2=O (stereo partly drawn) [I-706, Ac-PL3-Asp-Cha-B5-Asp-TfeGA-Ala-Ala-Phe-Asn-S8-Phe-BztA-Gln-NH2] |  |  | 57 |  | 48 (≈ 96.3 µg/mL) | 2.99 |  |  |  |  |
| CC(=O)N1CCC[C@]12CC=CCCCC1(CCCC=CCCCCCC[C@@](C)(C(=O)N[C@@H](Cc3ccccc3)C(=O)N[C@@H](Cc3csc4ccccc34)C(=O)N[C@@H](Cc3c[nH]cn3)C(N)=O)NC(=O)[C@H](CCC(N)=O)NC(=O)[C@H](Cc3ccccc3)NC(=O)[C@H](C)NC(=O)[C@H](C)NC(=O)[C@H](CC(=O)O)NC(=O)[C@H](CC(=O)O)NC1=O)NC(=O)[C@H](C)NC(=O)[C@H](CC(=O)O)NC2=O (stereo partly drawn) [I-361, Ac-PL3-Asp-Ala-B5-Asp-Asp-Ala-Ala-Phe-Gln-S8-Phe-BztA-His-NH2] | 46 (≈ 84.5 µg/mL) | 2.058 |  |  |  |  | 42 | 42 |  |  |
| CC(=O)N1CCC[C@]12CC=CCCCC1(CCCC=CCCCCCC[C@@](C)(C(=O)N[C@@H](Cc3ccccc3)C(=O)N[C@@H](Cc3csc4ccccc34)C(=O)N[C@@H](Cc3c[nH]cn3)C(N)=O)NC(=O)[C@H](CC(N)=O)NC(=O)[C@H](Cc3ccccc3)NC(=O)[C@H](C)NC(=O)[C@H](C)NC(=O)[C@H](CCC(=O)O)NC(=O)[C@H](CC(=O)O)NC1=O)NC(=O)[C@H](CC1CCCCC1)NC(=O)[C@H](CC(=O)O)NC2=O (stereo partly drawn) [I-615, Ac-PL3-Asp-Cha-B5-Asp-Glu-Ala-Ala-Phe-Asn-S8-Phe-BztA-His-NH2] | 10 (≈ 19.2 µg/mL) |  | 50 |  |  | 2.83 |  |  |  |  |
| CC[C@H](C)[C@@H]1NC(=O)[C@H](CC(=O)O)NC(=O)[C@]2(CC=CCCCC3(CCCC=CCCCCCC[C@@](C)(C(=O)N[C@@H](Cc4ccccc4)C(=O)N[C@@H](Cc4csc5ccccc45)C(=O)N[C@@H](CCC(N)=O)C(N)=O)NC(=O)[C@H](CCC(N)=O)NC(=O)[C@H](Cc4ccccc4)NC(=O)[C@H](C)NC(=O)[C@H](Cc4c[nH]c5ccccc45)NC(=O)[C@H](CCC(=O)O)NC(=O)[C@H](CC(=O)O)NC3=O)NC1=O)CCCN2C(C)=O (stereo partly drawn) [I-655, Ac-PL3-Asp-Ile-B5-Asp-Glu-Trp-Ala-Phe-Gln-S8-Phe-BztA-Gln-NH2] |  |  | 183 |  | 46 (≈ 91.9 µg/mL) | 2.69 |  |  |  |  |
| CC(=O)N1CCC[C@]12CC=CCCCC1(CCCC=CCCCOC(=O)N3CC[C@@](C(=O)N[C@@H](Cc4ccccc4Cl)C(=O)N[C@@H](Cc4csc5ccccc45)C(=O)N[C@@H](CO)C(N)=O)(C3)NC(=O)[C@H](CC(C)C)NC(=O)[C@H](Cc3ccccc3)NC(=O)[C@H](C)NC(=O)[C@H](C)NC(=O)[C@H](CC(=O)O)NC(=O)[C@H](CC(=O)O)NC1=O)NC(=O)[C@H](CC(C)(C)C)NC(=O)[C@H](CC(=O)O)NC2=O (stereo partly drawn) [I-1064, Ac-PL3-Asp-Npg-B5-Asp-Asp-Ala-Ala-Phe-Leu-PyrS2-2C1F-BztA-Ser-NH2] | 29 (≈ 55.2 µg/mL) | 1.967 |  |  |  |  |  | 414 | 414 |  |
| CC[C@H](C)[C@@H]1NC(=O)[C@H](CC(=O)O)NC(=O)[C@]2(CC=CCCCC3(CCCC=CCCCCCC[C@@](C)(C(=O)N[C@@H](Cc4ccsc4)C(=O)N[C@@H](Cc4csc5ccccc45)C(=O)N[C@@H](Cc4c[nH]cn4)C(N)=O)NC(=O)[C@H](CC(N)=O)NC(=O)[C@H](Cc4ccccc4)NC(=O)[C@H](C)NC(=O)[C@H](C)NC(=O)[C@H](CN(CC(=O)O)CC(F)(F)F)NC(=O)[C@H](CC(=O)O)NC3=O)NC1=O)CCCN2C(C)=O (stereo partly drawn) [I-702, Ac-PL3-Asp-Ile-B5-Asp-TfeGA-Ala-Ala-Phe-Asn-S8-3Thi-BztA-His-NH2] |  |  | 76 |  | 40 (≈ 79.3 µg/mL) | 2.75 |  |  |  |  |
| CC(=O)N1CCC[C@]12CC=CCCCC1(CCCC=CCCCCCC[C@@](C)(C(=O)N[C@@H](Cc3ccccc3)C(=O)N[C@@H](Cc3csc4ccccc34)C(=O)NC(Cc3cncn3C)C(N)=O)NC(=O)[C@H](CC(N)=O)NC(=O)[C@H](Cc3ccccc3)NC(=O)[C@H](C)NC(=O)[C@H](C)NC(=O)[C@H](CCC(=O)O)NC(=O)[C@H](CC(=O)O)NC1=O)NC(=O)[C@H](C)NC(=O)[C@H](CC(=O)O)NC2=O (single isomer, unassigned) [I-481, Ac-PL3-Asp-Ala-B5-Asp-Glu-Ala-Ala-Phe-Asn-S8-Phe-BztA-3MeH-NH2] |  | 2.133 | 42 |  |  |  |  |  |  | 30 (≈ 55.5 µg/mL) |
| CC(=O)N1CCC[C@]12CC=CCCCC1(CCCC=CCCCCCC[C@@](C)(C(=O)N[C@@H](Cc3ccccc3)C(=O)N[C@@H](Cc3csc4ccccc34)C(=O)N[C@@H](CCC(N)=O)C(N)=O)NC(=O)[C@H](C(C)C)NC(=O)[C@H](Cc3ccccc3)NC(=O)[C@H](C)NC(=O)[C@H](C)NC(=O)[C@H](CC(=O)O)NC(=O)[C@H](CC(=O)O)NC1=O)NC(=O)[C@H](CCC(N)=O)NC(=O)[C@H](CC(=O)O)NC2=O (stereo partly drawn) [I-346, Ac-PL3-Asp-Gln-B5-Asp-Asp-Ala-Ala-Phe-Val-S8-Phe-BztA-Gln-NH2] | 44 (≈ 81.6 µg/mL) | 1.943 |  |  |  |  | 180 | 180 |  |  |
| CC(=O)N1CCC[C@]12CC=CCCCC1(CCCC=CCCCCCC[C@@](C)(C(=O)N[C@@H](Cc3ccccc3)C(=O)N[C@@H](Cc3csc4ccccc34)C(=O)N[C@@H](CCC(N)=O)C(N)=O)NC(=O)[C@H](CCC(N)=O)NC(=O)[C@H](Cc3cccs3)NC(=O)[C@H](C)NC(=O)[C@H](C)NC(=O)[C@H](CCC(=O)O)NC(=O)[C@H](CC(=O)O)NC1=O)NC(=O)[C@H](C)NC(=O)[C@H](CC(=O)O)NC2=O (stereo partly drawn) [I-486, Ac-PL3-Asp-Ala-B5-Asp-Glu-Ala-Ala-2Thi-Gln-S8-Phe-BztA-Gln-NH2] | 50 (≈ 92.4 µg/mL) | 1.97 | 147 | 147 |  |  |  |  |  |  |
| CC[C@H](C)[C@@H]1NC(=O)[C@H](CC(=O)O)NC(=O)[C@]2(CC=CCCCC3(CCCC=CCCCCCC[C@@](C)(C(=O)N[C@@H](Cc4ccccc4)C(=O)N[C@@H](Cc4csc5ccccc45)C(=O)N[C@@H](CCC(N)=O)C(N)=O)NC(=O)[C@H](CCC(N)=O)NC(=O)[C@H](Cc4ccccc4)NC(=O)[C@H](C)NC(=O)[C@H](CC(C)C)NC(=O)[C@H](CCC(=O)O)NC(=O)[C@H](CC(=O)O)NC3=O)NC1=O)CCCN2C(C)=O (stereo partly drawn) [I-647, Ac-PL3-Asp-Ile-B5-Asp-Glu-Leu-Ala-Phe-Gln-S8-Phe-BztA-Gln-NH2] | 50 (≈ 96.3 µg/mL) | 2.677 | 445 | 445 |  |  |  |  |  |  |
